Measured values from patent US6512006B1, “HIV protease inhibitors” (Warner-Lambert Company, priority 1999, dated 2003).
pEC50, pKi: −log10 of the molar value. Where two headings read alike, the source gives them in different places.

Legend:
[1] = system: HIV infected lymphocyte derived CEM cells; assay: Cellular Infection Assay, XTT cytopathic procedure in CEM cells (antiviral efficacy); format: cell-based
Procedure: Compounds were tested in lymphocyte derived CEM cells using the XTT cytopathic procedures and were performed at Southern Research Institute (Buckheit, et al., Antiviral Res., 1993;21:247; see also Weislow, et al., J. Nat. Cancer Inst., 1989;81:577). Compound concentrations were 0.32, 1, 3.2, 10, 32, and 100 μM. The EC50 represents the concentration of agent, which reduces HIV cytopathic effects 50% relative to untreated control. Cellular toxicity of the agents are estimated from the TC50 which represents the concentration of the agent which inhibits 50% of the viability of uninfected cells.
EC50 indicates the concentration of the drug which provide 50% protection against HIV.

[2] = target: T1, Recombinant HIV-1 protease (Human immunodeficiency virus type 1 group M subtype B, UniProt P04585); assay: HIV Protease Assay (Ki); format: biochemical; conditions: pH 6.2, 37° C., 40 μM substrate III
T1 construct: Recombinant HIV-1 protease (>96% purity); purchased Bachem Bioscience, Inc. (King of Prussia, Pa.)
Procedure: Recombinant HIV-1 protease (>96% purity) and HIV protease substrate III (the undecapeptide H-His-Lys-Ala-Arg-Val-Leu-Nph-Glu-Ala-Nle-Ser-NH2, 97% purity) were purchased from Bachem Bioscience, Inc. (King of Prussia, Pa.).
The methods employed follow the procedures of Tummino, et al., Archives of Biochemistry and Biophysics, 1995;316:523). […] (total volume, […]). […] The final inhibitor concentrations used were 0 (0.1, 0.2, in some experiments), 0.5, 1, 2, 5, 10, 20, 50, and 100 μM. The solution was mixed, incubated for 5 minutes and the reaction quenched by addition of trifluoracetic acid, 2% final. The (leu-p-nitro-phe) bond of the substrate is cleaved by the enzyme and substrate and products separated by reverse-phase HPLC (high pressure liquid chromatography). Absorbance was measured at 220 nm, peak areas determined, and percentage conversion to product used to calculate percentage control (=[% conversion (+inhibitor)/% conversion (−inhibitor)]×100).
Ki means inhibitory constant; it approximately the equilibrium binding constant for the binding of the inhibitor to the free enzyme.

[3] = system: uninfected CEM cells; assay: Cellular toxicity in uninfected CEM cells (XTT); format: cell-based; conditions: cytotoxicity in 50% of uninfected CEM cells; read-out: TC50 (the source's name)
Procedure: Compound concentrations were 0.32, 1, 3.2, 10, 32, and 100 μM.

Row | Compound | pEC50 ([1]; read-out: Antiviral Efficacy EC50; CEM cells, 50% protection against HIV cytopathic effects) | pKi ([2]; Inhibition of HIV Protease Ki) | CC50 [3] [nM] | melting point [°C] | pEC50 ([1]; CEM cells, 50% protection against HIV cytopathic effects; read-out: Antiviral Efficacy EC50) | pKi ([2]; read-out: Inhibition of HIV Protease Ki)
1 | CCCN(C1=C(O)CC(CCc2ccc(O)cc2)(C(C)C)OC1=O)c1cccc(NS(=O)(=O)c2ccc(C(F)(F)F)cn2)c1 (stereo not shown) [Example 2, 5-Trifluoromethyl-pyridine-2-sulfonic acid [3-({4-hydroxy-6-[2-(4-hydroxy-phenyl)-ethyl]-6-isopropyl-2-oxo-5,6-dihydro-2H-pyran-3-yl}-propyl-amino)-phenyl]-amide] | 6.00 | 10.08 | 71000 | 107 to 110 | – | –
2 | Pyridine-2-sulfonic acid [3-({4-hydroxy-6-[2-(4-hydroxy-phenyl)-ethyl]-6-isopropyl-2-oxo-5,6-dihydro-2H-pyran-3-yl}-propyl-amino)-phenyl]-amide [Example 14] | – | – | 210000 | – | 5.80 | 9.27
